In patent US12642886B2, “POSS viscoelastic hemostatic agents” (Hybrid Plastics, Incorporated, priority 2019, dated 2026):

Test: Viscometric properties (oscillatory rheology, shear sweep)
Type: physicochemical
Protocol: The molecular weight of trisilanol i-octyl POSS® at 1184 g/mol, is generally equivalent to that of common silicone oligomers. In comparison to telechelic silanol polydimethylsiloxanes, trisilanol i-octylPOSS is unique in terms of its high viscosity (27 Pa·s at 24° C.) relative to the 4.3 wt % of silanol it contains. Telechelic silanol polydimethylsiloxanes and diphenyl-siloxane-dimethyl-siloxane copolymers with equivalent silanol contents are generally low viscosity fluids
Oscillatory rheology was utilized to determine the viscometric characteristics of i-octylPOSS trisilanol versus mixtures containing solid hemostatic agents suspended in the carrier fluid, i-octylPOSS trisilanol. The solid hemostatic agents utilized for these tests were chitin and kaolin. Shear sweep measurements of viscosity at 37° C. over the range of 0.01-100 s^−1 were deemed adequate to assess reproducibility of the hemostat agent mixtures.
It is non-Newtonian attributes are evidenced by a reduction of viscosity relative to shear rate. The shear thinning behavior is useful as it enables the hemostat to be syringable or pourable yet to remain in place once deposited onto a wound. Desirably, the viscosity of this hemostat can be controlled simply by increasing or decreasing the amount of kaolin incorporation.
A similar viscosity test was performed using chitin as the solid hemostatic additive.

For “trisilanol hepta-isoOctyl POSS [i-octylPOSS trisilanol]”, which viscosity (at 24° C.) is on record?
Its viscosity is 27 Pa·s.

What about the “rheological behaviour (viscosity relative to shear rate)” value (shear sweep 0.01-100 s^−1 at 37° C.) of the same substance?
The value was “Newtonian fluid”.
